According to PubChem BioAssay (NCI):
“And” between values parts separate entries of the source, which are not always exact repeats. Identical values can stand only once.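 Grown in 96-well plates, cells were treated for 48 hours with each compound at five concentrations. Insufficient inhibition: endpoint recorded as highest concentration tested. Here, GI50 denotes the concentration required for 50% inhibition of growth. Definition used: TGI = concentration required for complete inhibition of growth.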

Assays:
Assay in all cases: NCI anticancer screen, dose series, 48 h
EKVX NSCLC = tested on: EKVX NSCLC
M14 melanoma = tested on: M14 melanoma
TK-10 renal = tested on: TK-10 renal
RXF 393 renal = tested on: RXF 393 renal
MALME-3M melanoma = tested on: MALME-3M melanoma
OVCAR-3 ovarian = tested on: OVCAR-3 ovarian
UACC-257 melanoma = tested on: UACC-257 melanoma
SNB-75 CNS = tested on: SNB-75 CNS
A549 NSCLC = tested on: A549 NSCLC
T-47D breast = tested on: T-47D breast

SMILES	GI50 (EKVX NSCLC) [µM]	TGI (EKVX NSCLC) [µM]	GI50 (M14 melanoma) [µM]	TGI (M14 melanoma) [µM]	GI50 (TK-10 renal) [µM]	TGI (TK-10 renal) [µM]	GI50 (RXF 393 renal) [nM]	TGI (RXF 393 renal) [µM]	GI50 (MALME-3M melanoma) [µM]	TGI (MALME-3M melanoma) [µM]	GI50 (OVCAR-3 ovarian) [µM]	GI50 (UACC-257 melanoma) [µM]	TGI (UACC-257 melanoma) [µM]	GI50 (SNB-75 CNS) [nM]	TGI (SNB-75 CNS) [µM]	GI50 (A549 NSCLC)	TGI (A549 NSCLC) [µM]	TGI (OVCAR-3 ovarian) [µM]	GI50 (T-47D breast) [µM]	TGI (T-47D breast) [µM]
CCOC(=O)N[C@H]1CCc2c(Br)c(OC)c(OC)c(OC)c2-c2ccc(SC)c(=O)cc21	< 0.0112	> 83.2	< 0.0128	4.35	3.8	> 60.4	< 10	13.8	< 0.01	28.4	< 0.01	8.64	45.2	< 10	16.1	< 0.0184 µM	> 43	–	–	–
N[C@@H]1CCCC[C@@H]1N.O=C([O-])CN(CP(=O)([O-])[O-])CP(=O)([O-])[O-].[Pt+2]	–	–	> 100	> 100	> 100	> 100	–	–	> 100	> 100	> 100	> 100	> 100	> 100000	> 100	> 100 µM	> 100	> 100	–	–
CC1SC(c2c(Cl)cccc2Cl)N(NC(=O)C(O)c2ccccc2)C1=O (configuration not stated)	> 100	> 100	87	> 100	> 100	> 100	93200	> 100	–	–	54.1	86.3	> 100	46900	> 100	94 µM	> 100	> 100	48.2	> 100
COc1cc(-c2cc(/C=C3\C(=O)Nc4ccccc43)[nH]n2)cc(OC)c1OC	–	–	2.29	7.17	–	–	8830	22.5	2.28	7.47	3.21	2.37	6.56	1180	10	3.36 µM	13	14.5	1.74	6.99
CCCCN(CCCC)C(=O)C(=O)C(C)C(=O)CC (configuration not stated)	–	–	–	> 100	–	> 100	–	–	–	> 100	–	–	> 100	–	> 100	–	> 100	> 100	–	–
BrC1=CC=C2NCCCCCCN=C3C=CC(Br)=CC=C3NCCCCCCN=C2C=C1	–	> 25.5	–	> 25.5	–	> 25.5	–	> 25.5	–	> 25.5	–	–	> 25.5	–	> 25.5	–	> 25.5	> 25.5	–	–
COc1cc(C2=NN(c3ccc(S(N)(=O)=O)cc3)C(c3ccc(Cl)cc3)C2)cc(OC)c1OC (configuration not stated)	–	–	4.8	> 100	3.27	> 100	3050	> 100	11.4	> 100	4.68	9.5	> 100	2220	> 100	4 µM	> 100	> 100	1.74	14.7
[C-]#[N+][C@]12C(=O)[C@H](CCC1(C)C)C(C)(C)[C@H]1C(=O)N(C)c3cccc2c31	–	–	29.9	> 100	> 100	> 100	> 100000	> 100	–	–	4.13	4.07	> 100	64300	> 100	5.42 µM	> 100	> 100	9.41	> 100
C=CCC(N[C@H](CO)c1ccccc1)c1cn(S(=O)(=O)c2ccc(C)cc2)c2ccccc12 (some centres not stated)	25.2	74.8	14.5	31.5	3.62	18	–	–	–	–	> 100	10.7	26.7	66200	> 100	12.7 µM	32.4	> 100	55.9	> 100
OCC#Cc1ccccc1C#Cc1ccc(C#Cc2ccccc2C#CCO)s1	19.9	43.1	23.3	49	16.7	30.6	19600	39.6	–	–	12.8	22.1	42.7	48100	78.7	19.1 µM	41	25.4	17.3	53.8
Cc1nc2cc(Nc3nc(Nc4ccc(F)cc4)nc(N4CCN(C)CC4)n3)ccc2n1Cc1ccccc1	–	–	1.97	3.69	–	–	–	–	–	–	1.84	1.8	3.3	1400	2.79	1.51 µM	3.15	3.51	–	–
CC1CCP(=O)(c2ccccc2)CC1 (configuration not stated)	–	> 100	–	> 100	–	> 100	–	> 100	–	> 100	–	–	> 100	–	> 100	–	> 100	> 100	–	–
CC(=O)[C-](C(C)=O)c1ccccc1.CC(=O)[C-](C(C)=O)c1ccccc1.CC[O-].CC[O-].[Ti+4]	> 100	> 100	> 100	> 100	> 100	> 100	–	–	> 100	> 100	> 100	> 100	> 100	> 100000	> 100	> 100 µM	> 100	> 100	–	–
COc1ccc2c(c1)cn1c3ccc(O)cc3[nH]c(=O)c21	0.797	19.2	0.0984	1.21	0.881	2.49	59.2	0.627	–	–	0.0968	0.836	18.5	227	13.6	0.301 µM	1.82	1.74	0.487	2.37
COc1cc(Cl)c2c3c(c(C(=O)c4ccccc4)oc13)CCC2	–	> 100	–	> 100	–	> 100	–	> 100	–	–	–	–	> 100	–	> 100	–	> 100	> 100	–	–
N#C/C(N)=C(\C#N)N=Cc1csc2ccccc12	27	> 100	46.8	> 100	17.6	45	–	–	50.9	> 100	19.1	> 100	> 100	12500	31.2	45.4 µM	> 100	47.8	1.07	28.5
CCCCCCNc1nc(N2CCOCC2)c2[nH]c(NCCCCCC)nc2n1	–	–	1.84	3.39	1.87	3.45	1360	2.67	–	–	1.76	1.62	3.16	1460	2.77	1.69 µM	3.38	3.14	–	–

SMILES	GI50 (EKVX NSCLC) [µM]	TGI (EKVX NSCLC) [µM]	GI50 (M14 melanoma) [µM]	TGI (M14 melanoma) [µM]	GI50 (TK-10 renal) [µM]	TGI (TK-10 renal) [µM]	GI50 (RXF 393 renal) [nM]	TGI (RXF 393 renal) [µM]	GI50 (MALME-3M melanoma) [µM]	TGI (MALME-3M melanoma) [µM]	GI50 (OVCAR-3 ovarian) [µM]	GI50 (UACC-257 melanoma) [µM]	TGI (UACC-257 melanoma) [µM]	GI50 (SNB-75 CNS) [nM]	TGI (SNB-75 CNS) [µM]	GI50 (A549 NSCLC)	TGI (A549 NSCLC) [µM]	TGI (OVCAR-3 ovarian) [µM]	GI50 (T-47D breast) [µM]	TGI (T-47D breast) [µM]
Cc1ccc(NC(=O)C2C(=O)N(c3ccc(C)c(C)c3)C(=O)/C2=N\NC(N)=S)cc1C (configuration not stated)	–	> 100	–	> 100	–	> 100	–	–	–	> 100	–	–	> 100	–	> 100	–	> 100	> 100	–	–
Cn1c2ccccc2c(=O)c2c([N+](=O)[O-])ccc(NCCN)c21	–	31	–	27.4	–	28.5	–	23.3	–	28.9	–	–	26.9	–	26.8	–	25.5	27.2	–	–
COc1ccc(C(=O)C(C(=O)C(=O)Nc2nccs2)c2ccc(OC)cc2)cc1 (configuration not stated)	–	–	–	> 100	–	> 100	–	> 100	–	> 100	–	–	> 100	–	> 100	–	> 100	> 100	–	–
O=C(Nc1cccc(O)c1)c1cccc(NC2=C(Cl)C(=O)N(Cc3ccccc3)C2=O)c1	17.3	32.1	20.5	40	15	29.8	14800	42.3	–	–	8.16	14	31.8	18400	36.3	18.8 µM	48.3	23	23.5	60.5
c1ccc2cc(Cn3c[n+](Cc4ccc5ccccc5c4)c4ccccc43)ccc2c1	–	–	–	–	–	–	–	–	–	–	0.927	1.39	2.97	–	–	1.87 µM	3.88	2.22	–	–
CO[C@@]12C[C@H]3[C@@H]([C@@H](O)[C@@H](OC(=O)/C=C/c4ccccc4)[C@@]4(O)C(C)(C)CCC[C@]34C)[C@@H](C)C1=CC(=O)O2	5.36	57.5	18.2	> 100	6.15	> 100	1330	7.93	–	–	2.01	14.4	32.1	382	2.46	3.64 µM	18.4	11.6	–	–
CC(O)C(O)C(O)C(/C=N\Nc1ccccc1)=N/Nc1ccccc1 (configuration not stated)	–	27.6	–	27.9	–	35.4	–	–	–	43.5	–	–	–	–	38.4	–	28.7	40.4	–	45.9
CCCCCC(O)(CCCCC)CCCCCCCCC1=C(O)c2[nH]c(=O)ccc2C(=O)C1=O	–	28.8	–	21.6	–	–	–	21.4	–	13.9	–	–	14.3	–	32.3	–	26.3	16.2	–	–
CC1(C)CC(=O)C(=[N+]=[N-])C(=O)C1	–	> 100	–	> 100	–	> 100	–	> 100	–	> 100	–	–	> 100	–	> 100	–	> 100	> 100	–	–
Cc1cc(C)cc(Nc2ccc([N+](=O)[O-])c(NCCN3CCOCC3)n2)c1	–	> 100	0.00162	–	13	> 100	20.8	48.8	16	> 100	0.000367	> 100	> 100	–	–	0.00286 µM and 0.02 µM	> 100	0.00192	–	–
COc1cc2c([C@@H](OC(=O)c3ccccc3)c3ccc4c(c3)OCO4)nccc2c(OC)c1OC	–	> 100	–	> 100	–	> 100	–	85.3	–	> 100	–	–	> 100	–	> 100	–	> 100	> 100	–	–
O=C(O)/C(=C\c1ccccc1Cl)S(=O)(=O)c1ccccc1	–	–	–	> 100	–	> 100	–	> 100	–	> 100	–	–	> 100	–	> 100	–	> 100	–	–	–
C/C1=C/C(=O)O[C@@H]2C[C@@H](CC[C@H](C)/C=C\C=C\CC1)O[C@@](OCCc1ccccc1)([C@@H]1CSC(=O)N1)C2	0.106	> 17.5	0.204	> 17.5	0.0895	0.287	36.3	0.158	0.0694	0.943	0.17	0.175	17.3	22	0.0597	0.0754 µM	> 17.5	0.607	–	–
c1cc[c]([Sn]([S]c2cccc3cccnc23)([S]c2cccc3cccnc23)[c]2ccccc2)cc1	0.22	0.881	0.188	0.393	0.206	0.417	109	0.23	0.168	0.547	0.165	0.205	0.559	192	1.16	0.363 µM	1.38	0.361	–	–
COc1cc(NCC2COc3c(ccc(OC)c3OC)C2=O)c([N+](=O)[O-])cc1OC (configuration not stated)	–	> 100	–	> 100	–	> 100	–	–	–	–	–	–	> 100	–	> 100	–	> 100	> 100	–	> 100
COC(=O)/C(=C/c1ccc(OC)cc1)NC(=O)c1ccccc1	–	> 100	–	> 100	–	> 100	–	> 100	–	> 100	–	–	> 100	–	> 100	–	> 100	–	–	–
C/C1=C\C/C=C(\C)[C@H]2CC(CC/C(C)=C/CC1)[C@](C)(C=O)O2	> 100	> 100	51.9	> 100	> 100	> 100	> 100000	> 100	–	–	76.4	> 100	> 100	> 100000	> 100	> 100 µM	> 100	> 100	> 100	> 100
